Laboratory results taken from PubChem BioAssay (NCI).
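96-well plates; 48 h exposure; 5 concentrations. Endpoints by linear interpolation between flanking doses. Not reached: highest tested concentration assigned. GI50 is the concentration that inhibits growth by half. TGI: total growth inhibition.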

Key:
Experiment in all cases: NCI tumour cell line growth inhibition, 48 h
[1] = tested on: TK-10 renal
[2] = tested on: SF-539 CNS
[3] = tested on: OVCAR-4 ovarian
[4] = tested on: MALME-3M melanoma
[5] = tested on: BT-549 breast
[6] = tested on: SF-295 CNS
[7] = tested on: COLO 205 colon
[8] = tested on: UACC-257 melanoma
[9] = tested on: ACHN renal
[10] = tested on: MDA-MB-435

Row | Structure (SMILES) | GI50 [1] [µM] | TGI [1] [µM] | GI50 [2] [µM] | TGI [2] [µM] | GI50 [3] [µM] | TGI [3] [µM] | GI50 [4] [µM] | TGI [4] [µM] | GI50 [5] [µM] | TGI [5] [µM] | GI50 [6] [µM] | TGI [6] [µM] | GI50 [7] [µM] | TGI [7] [µM] | GI50 [8] [µM] | TGI [8] [µM] | GI50 [9] [µM] | TGI [9] [µM] | GI50 [10] [µM] | TGI [10] [µM]
1 | Nc1c(C(=O)Nc2ccccn2)sc2nc3c(cc12)CCCCCC3 | 2.87 | 10.3 | 0.58 | 3.07 | 4.21 | 15.8 | 1.26 | 13.8 | 0.524 | 18 | 0.426 | 5.43 | 1.49 | 13.6 | 7.88 | 30.7 | 2.41 | 10.9 | 0.143 | 0.509
2 | CCN(CC)Cc1cc(Nc2cc(C(F)(F)F)c(C#N)c3nc4ccccc4n23)ccc1O | 1.47 | 9.43 | 2.7 | 11 | 1 | 2.59 | 1.19 | 5.82 | 2.36 | 8.75 | 1.2 | 3.81 | 1.41 | 3.08 | 1.93 | 7.86 | 2.24 | 10.3 | 2.29 | 13.5
3 | O=C(Nc1nc2c(s1)CCc1c-2c(Br)n(Cc2ccccc2)c1Br)c1ccccc1 | 2.98 | 7.85 | 1.55 | 3.38 | 1.8 | 7.54 | 2.57 | 10.2 | 2.53 | 8.01 | 3.01 | 13.2 | 8.05 | > 100 | 8.53 | > 100 | 1.88 | 7.35 | 2.97 | 35.9
4 | O=c1c2ccccc2n2cnc3ccc(NCCNCCO)c1c32 | – | 15.7 | – | 15.8 | – | 4.57 | – | 9.3 | – | 16.6 | – | 9.2 | – | 5.09 | – | 13.2 | – | 7.42 | – | 6.68
5 | Cc1ccc(NC2=CC(=O)C(=O)c3ccccc32)c(C)c1 | 0.596 | 12.2 | 3.63 | 13.2 | 2.53 | 12.2 | 1.76 | 3.78 | 2.17 | 7.2 | 1.68 | 3.37 | 3.06 | 11.6 | 1.96 | 4.44 | 3.71 | 13.9 | 1.79 | 3.48
6 | CCN(CCNc1ccc(C)c2sc3cc(Cl)ccc3c(=O)c12)CC(C)(C)O | 3.59 | 13.9 | 5.54 | 24 | 24.6 | > 100 | 2.16 | 7.3 | 18.7 | > 100 | 1.86 | 4.34 | 1.89 | 3.94 | 2.03 | 4.37 | 12.7 | 65 | 2 | 4.59
7 | CC1=NN(c2nc(N)nc(/C=C\c3ccccc3)n2)C(C)(C)C1 | 7.76 | 22.2 | 6.25 | 22.4 | 4.16 | 16.6 | 10.7 | 29.4 | 5.09 | 19.1 | 11.7 | 30.5 | 2.84 | 14 | 5.73 | 20.1 | 9.46 | 28.4 | 1.97 | 7.13
